In patent publication US20250230193A1, “CYCLIC COMPOUND HAVING SELECTIVE KRAS INHIBITORY EFFECT ON HRAS AND NRAS” (CHUGAI SEIYAKU KABUSHIKI KAISHA, priority 2022, published 2025):
Where a SMILES comes first, the peptide text is derived from it. Bridges are numbered along the chain shown (N, C = ends). [ ]: non-standard residue; d: D form. hPhe(3-Cl-4-CF3) = N[C@@H](CCc1ccc(C(F)(F)F)c(Cl)c1)C(=O)O; NPrPhe(4-CF3) = CCCN[C@@H](Cc1ccc(C(F)(F)F)cc1)C(=O)O; NMeGly(cPent) = CN[C@H](C(=O)O)C1CCCC1; Pro(4,4-F2) = O=C(O)[C@@H]1CC(F)(F)CN1; NMeL = CN[C@@H](CC(C)C)C(=O)O; Ac4c = NC1(C(=O)O)CCC1; NEtG = CCNCC(=O)O; Sar = CNCC(=O)O

How the values were obtained:
[1] = target: GDP-bound HRAS wild-type protein (Homo sapiens, UniProt P01112); experiment: Binding to HRAS by surface plasmon resonance (SPR), Single Cycle Kinetics; settings: for HRAS/KRAS (ratio of KD value with respect to HRAS to KD value with respect to KRAS) / HRAS/KRAS (ratio of KD value for HRAS to KD value for KRAS): GDP-bound HRAS wild-type vs GDP-bound KRAS wild-type
[2] = target: GDP-bound NRAS wild-type protein (Homo sapiens, UniProt P01111); experiment: Binding to NRAS by surface plasmon resonance (SPR), Single Cycle Kinetics; settings: for NRAS/KRAS (ratio of KD value with respect to NRAS to KD value with respect to KRAS) / NRAS/KRAS (ratio of KD value for NRAS to KD value for KRAS): GDP-bound NRAS wild-type vs GDP-bound KRAS wild-type
[3] = KD ratio HRAS/KRAS, class symbols
[4] = KD ratio NRAS/KRAS, class symbols

Sequence of GDP-bound HRAS wild-type protein (P01112 whole entry): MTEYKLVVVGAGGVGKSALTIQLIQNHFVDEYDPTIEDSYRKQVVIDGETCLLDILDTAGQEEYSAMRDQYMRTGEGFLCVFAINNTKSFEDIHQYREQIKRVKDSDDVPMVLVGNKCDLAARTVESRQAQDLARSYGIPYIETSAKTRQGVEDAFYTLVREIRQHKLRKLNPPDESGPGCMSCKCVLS
Sequence of GDP-bound NRAS wild-type protein (P01111 whole entry): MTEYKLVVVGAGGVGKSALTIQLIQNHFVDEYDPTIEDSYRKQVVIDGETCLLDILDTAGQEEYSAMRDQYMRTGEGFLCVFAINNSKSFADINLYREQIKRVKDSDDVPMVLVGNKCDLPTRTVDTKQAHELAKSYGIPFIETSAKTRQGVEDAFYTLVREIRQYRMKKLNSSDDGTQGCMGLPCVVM

## CCO[C@@H]1C[C@H]2C(=O)NC3(CCC3)C(=O)N(C)[C@@H](C3CCCC3)C(=O)N(C)[C@H](C(=O)N3CCOCC3)CC(=O)N(C)[C@@H](CC)C(=O)N[C@@H]([C@@H](C)CC)C(=O)N3CC[C@H]3C(=O)N(C)[C@H]3CC(C)=CCN(C3=O)[C@@H](Cc3ccc(C(F)(F)F)cc3)C(=O)N(C)CC(=O)N[C@@H](CCc3cc(F)c(C(F)(F)F)c(F)c3)C(=O)N2C1 [PP1042]
[1]; SPR
  HRAS/KRAS (ratio of KD value with respect to HRAS to KD value with respect to KRAS): C (A compound having a KD ratio of 0.1 or more and less than 3 is denoted as C)
[2]; SPR
  NRAS/KRAS (ratio of KD value with respect to NRAS to KD value with respect to KRAS): C (A compound having a KD ratio of 0.1 or more and less than 3 is denoted as C)

## CCCN1C(=O)CN(C)C(=O)CN(CC)C(=O)[C@H]([C@@H](C)CC)NC(=O)[C@H](CC(C)C)N(C)C(=O)C[C@@H](C(=O)N(C)C)NC(=O)[C@H](C2CCCC2)N(C)C(=O)C2(CCC2)NC(=O)[C@@H]2CC(F)(F)CN2C(=O)[C@H](CCc2ccc(C(F)(F)F)c(Cl)c2)NC(=O)CN(C)C(=O)[C@@H]1Cc1ccc(C(F)(F)F)cc1 [PP0370] ([NMeL]I[NEtG][Sar][NPrPhe(4-CF3)][Sar][hPhe(3-Cl-4-CF3)][Pro(4,4-F2)][Ac4c][NMeGly(cPent)]D-NMe2; lactam N-11)
[1]; KD ratio HRAS/KRAS, SPR
  HRAS/KRAS (ratio of KD for GDP-bound HRAS wild-type to KD for KRAS): C (A compound having a KD ratio of 0.1 or more and less than 3 is denoted as C)
[2]; KD ratio NRAS/KRAS, SPR
  NRAS/KRAS (ratio of KD for GDP-bound NRAS wild-type to KD for KRAS): B (a compound having 3 or more and less than 10 is denoted as B)

## CC[C@H](C)[C@@H]1NC(=O)[C@H](CC(C)C)N(C)C(=O)C[C@@H](C(=O)N2CCOCC2)N(C)C(=O)[C@H](C2CCCC2)N(C)C(=O)C2(CCCC2)NC(=O)[C@H](C)N(CC)C(=O)[C@H](CCc2cc(F)c(C(F)(F)F)c(F)c2)NC(=O)CN(C)C(=O)[C@H](Cc2ccc(C(F)(F)F)cc2)N2CCCCC[C@@H](C2=O)N(C)C(=O)CN(C)C1=O [PP0515]
[1]; KD ratio HRAS/KRAS, SPR
  HRAS/KRAS (ratio of KD value with respect to GDP-bound HRAS wild-type protein to KD value with respect to KRAS): B (a compound having 3 or more and less than 10 is denoted as B)
[2]; KD ratio NRAS/KRAS, SPR
  NRAS/KRAS (ratio of KD value with respect to GDP-bound NRAS wild-type protein to KD value with respect to KRAS): B (a compound having 3 or more and less than 10 is denoted as B)

## CCC[C@H]1C(=O)N[C@@H]([C@@H](C)CC)C(=O)N(C)CC(=O)N(C)[C@H]2C/C=C\CCN(C2=O)[C@@H](Cc2ccc(C)cc2)C(=O)N(C)CC(=O)N[C@@H](CCc2ccc3c(C)cn(C)c3c2)C(=O)N2C[C@H](OCC)C[C@H]2C(=O)NC2(CC(C)(C)C2)C(=O)N(C)[C@@H](C(CC)CC)C(=O)N(C)[C@H](C(=O)N(C)C)CC(=O)N1C [PP2910]
[1]; [3]
  HRAS/KRAS (ratio of KD value with respect to GDP-bound HRAS wild-type protein to KD value with respect to KRAS): A (a compound having 10 or more and less than 20 is denoted as A)
[2]; [4]
  NRAS/KRAS (ratio of KD value with respect to GDP-bound NRAS wild-type protein to KD value with respect to KRAS): AA (a compound having 20 or more is denoted as AA)

## CCO[C@@H]1C[C@H]2C(=O)NC3(CC(C)(C)C3)C(=O)N(C)[C@@H](C3CCCC3)C(=O)N3CCC[C@@H]3CC(=O)N(C)[C@@H](CC3CC3)C(=O)N[C@@H]([C@@H](C)CC)C(=O)N(C)CC(=O)N(C)[C@H]3C/C=C\CCN(C3=O)[C@@H](Cc3ccc(C(F)(F)F)cc3)C(=O)N(C)CC(=O)N[C@@H](CCc3cc(F)c(C(F)(F)F)c(F)c3)C(=O)N2C1 [PP1611]
[1]; SPR
  HRAS/KRAS (ratio of KD value for HRAS to KD value for KRAS): B (a compound having 3 or more and less than 10 is denoted as B)
[2]; SPR
  NRAS/KRAS (ratio of KD value for NRAS to KD value for KRAS): B (a compound having 3 or more and less than 10 is denoted as B)

## CCO[C@@H]1C[C@H]2C(=O)NC3(CCC3)C(=O)N(C)[C@@H](C3CCCC3)C(=O)N(C)[C@H](C(=O)N(C)CC)CC(=O)N(C)[C@@H](CC(C)C)C(=O)N[C@@H]([C@@H](C)CC)C(=O)N(C)CC(=O)N(C)[C@H]3C/C=C\CCN(C3=O)[C@@H](Cc3ccc(C(F)(F)F)cc3)C(=O)N(C)CC(=O)N[C@@H](CCc3ccc(C(F)(F)F)c(OC)c3)C(=O)N2C1 [PP2846]
[1]; [3]
  HRAS/KRAS (ratio of KD value with respect to GDP-bound HRAS wild-type protein to KD value with respect to KRAS): A (a compound having 10 or more and less than 20 is denoted as A)
[2]; [4]
  NRAS/KRAS (ratio of KD value with respect to GDP-bound NRAS wild-type protein to KD value with respect to KRAS): AA (a compound having 20 or more is denoted as AA)

## CCCN(C)C(=O)[C@@H]1CC(=O)N(C)[C@@H](CC(F)F)C(=O)N[C@@H]([C@@H](C)CC)C(=O)N(C)CC(=O)N(C)[C@H]2C/C=C\CCN(C2=O)[C@@H](Cc2ccc(C(F)(F)F)cc2)C(=O)N(C)CC(=O)N[C@@H](CCc2cc(F)c(C(F)(F)F)c(F)c2)C(=O)N2CCC[C@H]2C(=O)NC2(CC(C)(C)C2)C(=O)N(C)[C@@H](C2CCCC2)C(=O)N1C [PP1721]
[1]; SPR
  HRAS/KRAS (ratio of KD value for HRAS to KD value for KRAS): A (a compound having 10 or more and less than 20 is denoted as A)
[2]; SPR
  NRAS/KRAS (ratio of KD value for NRAS to KD value for KRAS): A (a compound having 10 or more and less than 20 is denoted as A)

## CCO[C@@H]1C[C@H]2C(=O)NC3(CCCC3)C(=O)N(C)[C@@H](C3CCCC3)C(=O)N(C)[C@H](C(=O)N(C)C)CC(=O)N(C)[C@@H](CC)C(=O)N[C@@H]([C@@H](C)CC)C(=O)N(C)CC(=O)N(C)[C@H]3C[C@@H](C)CCN(C3=O)[C@@H](Cc3ccc(C(F)(F)F)cc3)C(=O)N(C)CC(=O)N[C@@H](CCc3cc(F)c(C(F)(F)F)c(F)c3)C(=O)N2C1 [PP1022]
[1]; SPR
  HRAS/KRAS (ratio of KD value with respect to HRAS to KD value with respect to KRAS): B (a compound having 3 or more and less than 10 is denoted as B)
[2]; SPR
  NRAS/KRAS (ratio of KD value with respect to NRAS to KD value with respect to KRAS): C (A compound having a KD ratio of 0.1 or more and less than 3 is denoted as C)
